From US20110263454A1, “Methods of Identifying Functional Characteristics of Promoters, Transcription Modifying Proteins and Transcription Modulating Agents” (Salk Institute for Biological Studies, priority 2008, published 2011)

Columns and labels:
mPgc1b promoter = assay: NHR-promoter luciferase screen, mPgc1b promoter; format: cell-based, mouse; settings: for Luc. act., normalized to lacZ / Normalized Luc. act., normalized to control: PGC1b promoter reporter, co-transfected HR, without or with its ligand; for Normalized Luc. act., normalized to control: relative to control; for luciferase activity normalized to lacZ activity and to a control, mPgc1b: mPgc1b promoter-luciferase, CV-1 cells, NHR +/- ligand, control = 1.00
Procedure: Briefly, there were co-expressed 50 ng of each NHR/NHR homodimer or NHR/RXR heterodimer with 100 ng promoter/luciferase construct and 50 ng of LacZ (as a control for transfection efficiency) in CV-1 cells using Fugene HD (Roche) as a transfection reagent (alternatively or additionally, a CMV-YFP construct can be used as a transfection control). Each of the nuclear hormone receptors that were used in these experiments was cloned into a pcDNA3.1 vector and comprised a C-terminally linked V5H6 tag.
(§1) The promoters that facilitate transcription of the indicated gene products that were tested using the protocols described herein are listed in the first row of the table. The nuclear hormone receptors and, where applicable, ligands that were assayed for their transcriptional effects on the promoters are listed in the first column of the table. The data represent the luciferase activity of each sample normalized to both the lacZ activity of that sample and to a control, e.g., no NHR or ligand, as customary in the art. As described previously, these normalizations allow the transcriptional activity of each reporter cell to be compared to other samples.
(§2) Tables 7-40 show the transcriptional effects of the hormone receptors, and, where applicable, ligands (orphan receptors are screened without ligand), on each individual promoter. […] The control data of each table are shown in their last rows.

mPOMC promoter = assay: NHR-promoter luciferase screen, mPOMC promoter; format: cell-based, mouse; settings: for Results of assays of transcription factor (+/- ligand) with mPOMC: Table 6d, luciferase activity relative to control (control = 1.00); for Luc. act., normalized to lacZ / Normalized Luc. act., normalized to control: mPOMC promoter, HR component with or without ligand; for Normalized Luc. act., normalized to control: relative to control
Procedure: (§3) The use, feasibility, and reproducibility of the functional NHR-promoter screen in a 48-well format have been tested validated. Briefly, there were co-expressed 50 ng of each NHR/NHR homodimer or NHR/RXR heterodimer with 100 ng promoter/luciferase construct and 50 ng of LacZ (as a control for transfection efficiency) in CV-1 cells using Fugene HD (Roche) as a transfection reagent (alternatively or additionally, a CMV-YFP construct can be used as a transfection control). Each of the nuclear hormone receptors that were used in these experiments was cloned into a pcDNA3.1 vector and comprised a C-terminally linked V5H6 tag. Twenty-four hours after transfection, appropriate ligands were added, where applicable, (see Table 5 for various ligands and concentrations and after 48 hrs, samples were assayed for luciferase and LacZ activity. To measure for luciferase activity 15 ul of sample was added to 30 ul of luciferase buffer (20 mM tricine, 1.07 mM MgCarbonate, 2.67 mM MgSulfate, 0.1 mM Naz-EDTA, 5 mM DTT, 5 mM ATP, 0.15 mg/ml CoA, 0.5 mM Luciferin), mixed briefly, and run in a Perkin Elmer Victor 5 luminometer. Thus, the functional NHR-promoter screen was used to observe the transcriptional activity of 29 promoters from various physiological pathways including inflammation, lipid and sugar metabolism, cholesterol transport, xenobiotic metabolism, and circadian rhythm.
as §1, §2

mAdiponectin promoter = assay: NHR-promoter luciferase screen, mAdiponectin promoter; format: cell-based, mouse; settings: for Luc. act., normalized to lacZ / Normalized Luc. act., normalized to control: Adiponectin, HR component without or with its ligand; for mAdiponectin promoter reporter activity: transcription factor +/- ligand, control = 1.00
Procedure: as §3, §1, §2

mDio1 promoter = assay: NHR-promoter luciferase screen, mDio1 promoter; format: cell-based, mouse; settings: for Luc. act., normalized to lacZ / Normalized Luc. act., normalized to control: Dio1, HR component without or with its ligand; for mDio1 promoter reporter activity: transcription factor +/- ligand, control = 1.00
Procedure: as §3, §1, §2

hTNFa promoter = assay: NHR-promoter luciferase screen, hTNFa promoter; format: cell-based, human; settings: for Luc. act., normalized to lacZ / Normalized Luc. act., normalized to control: TNFa promoter, HR component without or with ligand; for hTNFa promoter reporter activity: transcription factor +/- ligand, control = 1.00
Procedure: as §3, §1, §2

hIFNg promoter = assay: NHR-promoter luciferase screen, hIFNg promoter; format: cell-based, human; settings: for Luc. act., normalized to lacZ / Normalized Luc. act., normalized to control: IFNg promoter, HR component without or with ligand; for hIFNg promoter reporter activity: transcription factor +/- ligand, control = 1.00
Procedure: as §3, §1, §2

Substance	Luc. act., normalized to lacZ (mPgc1b promoter)	Normalized Luc. act., normalized to control (mPgc1b promoter)	luciferase activity normalized to lacZ activity and to a control, mPgc1b (mPgc1b promoter)	Results of assays of transcription factor (+/- ligand) with mPOMC (mPOMC promoter)	Luc. act., normalized to lacZ (mPOMC promoter)	Normalized Luc. act., normalized to control (mPOMC promoter)	Luc. act., normalized to lacZ (mAdiponectin promoter)	Normalized Luc. act., normalized to control (mAdiponectin promoter)	mAdiponectin promoter reporter activity (mAdiponectin promoter)	Luc. act., normalized to lacZ (mDio1 promoter)	Normalized Luc. act., normalized to control (mDio1 promoter)	mDio1 promoter reporter activity (mDio1 promoter)	Luc. act., normalized to lacZ (hTNFa promoter)	Normalized Luc. act., normalized to control (hTNFa promoter)	hTNFa promoter reporter activity (hTNFa promoter)	Luc. act., normalized to lacZ (hIFNg promoter)	Normalized Luc. act., normalized to control (hIFNg promoter)	hIFNg promoter reporter activity (hIFNg promoter)
PPARg: Peroxisome proliferator activated receptor γ (NR1C3), cDNA driver	11.35	1.0	0.96	1.57	108.0	1.6	80.6	1.3	1.28	9.9	2.2	2.23	1345.4	1.4	1.37	24.04	1.5	1.51
LXRa: Liver X Receptor α (NR1H3), cDNA driver	8.40	0.7	0.71	1.70	117.1	1.7	60.7	1.0	0.97	4.7	1.1	1.06	994.6	1.0	1.01	24.59	1.5	1.55
RXRa: Retinoic X Receptor α (NR2B1), cDNA driver	8.6	0.7	0.72	0.99	68.0	1.0	57.3	0.9	0.91	5.5	1.2	1.24	954.8	1.0	0.97	13.1	0.8	0.82
